Legend:
Format in all cases: cell-based, Erythrocyte
[1] = Cytotoxicity against human erythrocytes assessed as hemolytic activity after 60 mins; conditions: read-out: HD50
[2] = Cytotoxicity against human erythrocytes assessed as hemolytic activity at 75 ug/ml after 60 mins
[3] = Cytotoxicity against human erythrocytes assessed as hemolytic activity at 50 ug/ml after 60 mins; conditions: read-out: Activity
[4] = Cytotoxicity against human erythrocytes assessed as hemolytic activity at 30 ug/ml after 60 mins; conditions: read-out: Activity
[5] = Cytotoxicity against human erythrocytes assessed as hemolytic activity at 100 ug/ml after 60 mins; conditions: for Activity: erythrocyte, 1 h
[6] = Cytotoxicity against human erythrocytes assessed as hemolytic activity at 40 ug/ml after 60 mins; conditions: read-out: Activity

Compound | HC50 at 1 h [1] | further results
CCCCCC(=O)O[C@H]1[C@H](O)[C@H](O)[C@@H](O[C@H]2[C@H](O)[C@@H](O[C@H]3O[C@H](C)[C@@H](O)[C@H](O)[C@@H]3O)[C@H](O[C@H]3CC[C@@]4(C)C(=CC[C@H]5[C@@H]6C[C@@H]7O[C@]8(CC[C@@H](C)CO8)[C@@H](C)[C@@H]7[C@@]6(C)CC[C@@H]54)C3)O[C@@H]2CO)O[C@@H]1C | 2.2 µM | 
C[C@@H]1CC[C@@]2(OC1)O[C@H]1C[C@H]3[C@@H]4CC=C5C[C@@H](O[C@@H]6O[C@H](CO[C@@H]7O[C@@H](C)[C@H](O)[C@@H](O)[C@H]7O)[C@@H](O)[C@H](O)[C@H]6O)CC[C@]5(C)[C@H]4CC[C@]3(C)[C@H]1[C@@H]2C | 28.6 µM | 
CC(=O)OC[C@H]1O[C@@H](O[C@H]2CC[C@@]3(C)C(=CC[C@H]4[C@@H]5C[C@@H]6O[C@]7(CC[C@@H](C)CO7)[C@@H](C)[C@@H]6[C@@]5(C)CC[C@@H]43)C2)[C@H](O[C@@H]2O[C@@H](C)[C@H](OC(C)=O)[C@@H](O)[C@H]2O)[C@@H](O)[C@@H]1O | > 75 µM | hemolysis % ([2]; erythrocyte): 8%
C[C@@H]1CC[C@@]2(OC1)O[C@H]1C[C@H]3[C@@H]4CC[C@H]5C[C@@H](O[C@@H]6O[C@H](CO)[C@@H](O[C@H]7O[C@H](C)[C@@H](O)[C@H](O)[C@@H]7O)[C@H](O)[C@H]6O[C@H]6O[C@H](C)[C@@H](O)[C@H](O)[C@@H]6O)[C@H](O)C[C@]5(C)[C@H]4CC[C@]3(C)[C@H]1[C@@H]2C | 13.1 µM | 
CC(=O)O[C@@H]1[C@@H](O)[C@@H](O)[C@H](OC[C@H]2O[C@@H](O[C@H]3CC[C@@]4(C)C(=CC[C@H]5[C@@H]6C[C@@H]7O[C@]8(CC[C@@H](C)CO8)[C@@H](C)[C@@H]7[C@@]6(C)CC[C@@H]54)C3)[C@H](O)[C@@H](O)[C@@H]2O)O[C@H]1C | > 50 µM | hemolysis at 1 h, 50 ug/ml [3]: 12%
CC(=O)O[C@H]1[C@H](O)[C@H](O)[C@@H](O[C@H]2[C@H](O)[C@@H](O[C@H]3O[C@H](C)[C@@H](O)[C@H](O)[C@@H]3O)[C@H](O[C@H]3CC[C@@]4(C)C(=CC[C@H]5[C@@H]6C[C@@H]7O[C@]8(CC[C@@H](C)CO8)[C@@H](C)[C@@H]7[C@@]6(C)CC[C@@H]54)C3)O[C@@H]2CO)O[C@@H]1C | 3.2 µM | 
CC(=O)OC[C@H]1O[C@@H](O[C@H]2CC[C@@]3(C)C(=CC[C@H]4[C@@H]5C[C@@H]6O[C@]7(CC[C@@H](C)CO7)[C@@H](C)[C@@H]6[C@@]5(C)CC[C@@H]43)C2)[C@H](O[C@@H]2O[C@@H](C)[C@H](O)[C@@H](O)[C@H]2O)[C@@H](O)[C@@H]1O | > 75 µM | hemolysis at 1 h, 75 ug/ml ([2]; human, human erythrocytes, read-out: Activity): 29%
CC(=O)O[C@@H]1[C@@H](O)[C@@H](O)[C@H](O[C@H]2[C@H](O)[C@@H](O)[C@H](O[C@H]3CC[C@@]4(C)C(=CC[C@H]5[C@@H]6C[C@@H]7O[C@]8(CC[C@@H](C)CO8)[C@@H](C)[C@@H]7[C@@]6(C)CC[C@@H]54)C3)O[C@@H]2CO)O[C@H]1C | 29.3 µM | 
CC(=O)O[C@H]1C[C@@H]2[C@H](CC[C@]3(C)[C@@H]4[C@H](C[C@@H]23)O[C@]2(CC[C@@H](C)CO2)[C@H]4C)[C@@]2(C)C[C@@H](O)[C@H](O[C@@H]3O[C@H](CO)[C@@H](O[C@H]4O[C@H](C)[C@@H](O)[C@H](O)[C@@H]4O)[C@H](O)[C@H]3O[C@H]3O[C@H](C)[C@@H](O)[C@H](O)[C@@H]3O)C[C@H]12 | > 30 µM | hemolysis at 1 h, 30 ug/ml [4]: 34%
CCCCCCCCCCCCCCCC(=O)O[C@H]1C[C@@H]2[C@H](CC[C@]3(C)[C@@H]4[C@H](C[C@@H]23)O[C@]2(CC[C@@H](C)CO2)[C@H]4C)[C@@]2(C)C[C@@H](O)[C@H](O[C@@H]3O[C@H](CO)[C@@H](O[C@H]4O[C@H](C)[C@@H](O)[C@H](O)[C@@H]4O)[C@H](O)[C@H]3O[C@H]3O[C@H](C)[C@@H](O)[C@H](O)[C@@H]3O)C[C@H]12 | > 100 µM | Activity [5]: Not Active
C[C@@H]1CC[C@@]2(OC1)O[C@H]1C[C@H]3[C@@H]4CC=C5C[C@@H](O[C@@H]6O[C@H](CO)[C@@H](O[C@@H]7O[C@@H](C)[C@H](O)[C@@H](O)[C@H]7O)[C@H](O)[C@H]6O)CC[C@]5(C)[C@H]4CC[C@]3(C)[C@H]1[C@@H]2C | 27.3 µM | 
CCCC(=O)O[C@H]1[C@H](O)[C@H](O)[C@@H](O[C@H]2[C@H](O)[C@@H](O[C@H]3O[C@H](C)[C@@H](O)[C@H](O)[C@@H]3O)[C@H](O[C@H]3CC[C@@]4(C)C(=CC[C@H]5[C@@H]6C[C@@H]7O[C@]8(CC[C@@H](C)CO8)[C@@H](C)[C@@H]7[C@@]6(C)CC[C@@H]54)C3)O[C@@H]2CO)O[C@@H]1C | 2.8 µM | 
CCCCCCCCCCCC(=O)O[C@H]1C[C@@H]2[C@H](CC[C@]3(C)[C@@H]4[C@H](C[C@@H]23)O[C@]2(CC[C@@H](C)CO2)[C@H]4C)[C@@]2(C)C[C@@H](O)[C@H](O[C@@H]3O[C@H](CO)[C@@H](O[C@H]4O[C@H](C)[C@@H](O)[C@H](O)[C@@H]4O)[C@H](O)[C@H]3O[C@H]3O[C@H](C)[C@@H](O)[C@H](O)[C@@H]3O)C[C@H]12 | > 100 µM | hemolysis at 1 h, 100 ug/ml ([5]; human erythrocytes, read-out: Activity): 8.5%
CO[C@]1(CCC(C)CO[C@@H]2O[C@H](CO)[C@@H](O)[C@H](O)[C@H]2O)O[C@H]2C[C@H]3[C@@H]4CC=C5C[C@@H](O[C@@H]6O[C@H](CO)[C@@H](O[C@H]7O[C@H](C)[C@@H](O)[C@H](O)[C@@H]7O)[C@H](O)[C@H]6O[C@H]6O[C@H](C)[C@@H](O)[C@H](O)[C@@H]6O)[C@H](O)C[C@]5(C)[C@H]4CC[C@]3(C)[C@H]2[C@@H]1C (stereo partly drawn) | > 100 µM | Activity [5]: Not Active
CO[C@]1(CCC(C)CS[C@@H]2O[C@H](CO)[C@@H](O)[C@H](O)[C@H]2O)O[C@H]2C[C@H]3[C@@H]4CC=C5C[C@@H](O[C@@H]6O[C@H](CO)[C@@H](O[C@H]7O[C@H](C)[C@@H](O)[C@H](O)[C@@H]7O)[C@H](O)[C@H]6O[C@H]6O[C@H](C)[C@@H](O)[C@H](O)[C@@H]6O)[C@H](O)C[C@]5(C)[C@H]4CC[C@]3(C)[C@H]2[C@@H]1C (stereo partly drawn) | > 100 µM | Activity [5]: Not Active
CC(=O)OC[C@H]1O[C@H](O[C@H]2[C@H](O)[C@@H](O[C@H]3O[C@H](C)[C@@H](O)[C@H](O)[C@@H]3O)[C@H](O[C@H]3CC[C@@]4(C)C(=CC[C@H]5[C@@H]6C[C@@H]7O[C@]8(CC[C@@H](C)CO8)[C@@H](C)[C@@H]7[C@@]6(C)CC[C@@H]54)C3)O[C@@H]2CO)[C@@H](O)[C@@H]1OC(C)=O | 2.7 µM | 
C[C@@H]1CC[C@@]2(OC1)O[C@H]1C[C@H]3[C@@H]4CC[C@H]5C[C@@H](O[C@@H]6O[C@H](CO)[C@@H](O[C@H]7O[C@H](C)[C@@H](O)[C@H](O)[C@@H]7O)[C@H](O)[C@H]6O[C@H]6O[C@H](C)[C@@H](O)[C@H](O)[C@@H]6O)CC[C@]5(C)[C@H]4CC[C@]3(C)[C@H]1[C@@H]2C | 3 µM | 
C[C@@H]1CC[C@@]2(OC1)O[C@H]1C[C@H]3[C@@H]4CC=C5C[C@@H](O[C@@H]6O[C@H](CO)[C@@H](O[C@@H]7O[C@@H](C)[C@H](O)[C@@H](O)[C@H]7O)[C@H](O)[C@H]6O[C@@H]6O[C@@H](C)[C@H](O)[C@@H](O)[C@H]6O)CC[C@]5(C)[C@H]4CC[C@]3(C)[C@H]1[C@@H]2C [DIOSCIN] | 6.8 µM | 
C[C@@H]1CC[C@@]2(OC1)O[C@H]1C[C@H]3[C@@H]4CC=C5C[C@@H](O[C@@H]6O[C@H](CO)[C@@H](O)[C@H](O)[C@H]6O)CC[C@]5(C)[C@H]4CC[C@]3(C)[C@H]1[C@@H]2C [DISOGLUSIDE] | > 100 µM | Activity [5]: Not Active
C[C@@H]1CC[C@@]2(OC1)O[C@H]1C[C@H]3[C@@H]4CC=C5C[C@@H](O[C@@H]6O[C@H](CO)[C@@H](O)[C@H](O)[C@H]6O[C@@H]6O[C@@H](C)[C@H](O)[C@@H](O)[C@H]6O)CC[C@]5(C)[C@H]4CC[C@]3(C)[C@H]1[C@@H]2C [OPHIOPOGONIN C] | 21.6 µM | 
C[C@@H]1CC[C@@]2(OC1)O[C@H]1C[C@H]3[C@@H]4CC=C5C[C@@H](O[C@@H]6O[C@H](CO)[C@@H](O)[C@H](O[C@@H]7O[C@@H](C)[C@H](O)[C@@H](O)[C@H]7O)[C@H]6O)CC[C@]5(C)[C@H]4CC[C@]3(C)[C@H]1[C@@H]2C [POLYPHILLIN C] | > 40 µM | hemolysis at 1 h, 40 ug/ml [6]: 15%
C[C@@H]1CC[C@@]2(OC1)O[C@H]1C[C@H]3[C@@H]4CC=C5C[C@@H](O[C@@H]6O[C@H](CO)[C@@H](O[C@H]7O[C@H](CO)[C@@H](O)[C@@H]7O)[C@H](O)[C@H]6O[C@H]6O[C@H](C)[C@@H](O)[C@H](O)[C@@H]6O)CC[C@]5(C)[C@H]4CC[C@]3(C)[C@H]1[C@@H]2C [POLYPHILLIN D] | 3.9 µM | 
C[C@@H]1CC[C@@]2(OC1)O[C@H]1C[C@H]3[C@@H]4CC=C5C[C@@H](O[C@@H]6O[C@H](CO)[C@@H](O)[C@H](O[C@@H]7O[C@@H](C)[C@H](O)[C@@H](O)[C@H]7O)[C@H]6O[C@H]6O[C@H](C)[C@@H](O)[C@H](O)[C@@H]6O)CC[C@]5(C)[C@H]4CC[C@]3(C)[C@H]1[C@@H]2C [TACCAOSIDE] | 6.8 µM | 

— ChEMBL document CHEMBL1147199, “Exploration of the correlation between the structure, hemolytic activity, and cytotoxicity of steroid saponins” (Bioorg Med Chem, 2007)
